# In US20060147456A1, “Induction of apoptosis in toll-like receptor expressing tumor cells” (priority 2004, published 2006):
# Experiments:
# [1] = tested on: colon cancer cell line LS174T; experiment: BrdU incorporation and propidium iodide DNA content by FACS; type: cell-based
# Method: (§1) Two cell lines, the colon cancer cell line LS174T and the breast cancer cell line Cama-1, were analyzed for death and cell cycle changes. Cells were cultured for 48 hours in either the presence or absence of Poly IC (5 μg/ml). Following a 30-minute pulse with 1 μg/ml bromodeoxyuridine (BrdU), the cells were fixed overnight at 4° C. in 70% ethanol before staining with FITC-coupled anti-BrdU monoclonal antibody and 3 μg/ml propidium iodide. Cell death and the cell cycle were analyzed by flow cytometry (FACS). BrdU incorporation is a measure of proliferation, whereas propidium iodide staining allows the quantification of DNA content, in particular the subdiploid cell population undergoing apoptosis.
# Cama-1 cells = experiment: BrdU incorporation and subdiploid DNA content by FACS; type: cell-based, human
# Method: Cell recovery after treatment with TLR ligands was measured by crystal violet staining (Sigma-Aldrich). Cells were plated at 10^4 cells/well in 96 well plates. After 72 hours of culture either with or without TLR ligand, the cells were washed with PBS, fixed in 6% formaldehyde (Sigma-Aldrich) for 20 minutes, washed twice, and then stained with 0.1% crystal violet for 10 minutes. After washes and incubation in 1% SDS for 1 hour, the absorbance was read at 605 nm on a Vmax plate reader (Molecular Devices, Sunnyvale, Calif.). Annexin V staining was performed with an annexin-FITC apoptosis detection kit (BD Pharmingen, San Diego, Calif.) according to the manufacturer's instructions. Sub-diploid cells were detected by staining with 3 μg/mL propidium iodide (PI) (Molecular probes, Eugene, Oreg.), after overnight permeabilization in 70% ethanol. Fluorescence was analyzed by flow cytometry on a FACScalibur (Becton Dickinson, Mountain View, Calif.) equipped with a doublet-discrimination module and using Celiquest Pro software (Becton Dickinson).
# as §1
# TLR3 was analyzed for its role in Poly IC induced apoptosis. Cama-1 cells were transfected with siRNA corresponding to either: an irrelevant sequence (Scr RNA; sequence: ACUAGUUCACGAGUCACCUtt) (SEQ ID NO: 21), or hTLR3 (sequence: CAGUGUUGAACCUUACCCAtt) (SEQ ID NO: 22). siRNA transfections were performed for 5 hours in 1 mL OptiMEM™ medium containing 3 μg/mL lipofectamine 2000 and 100 nM siRNA. Cells were then washed in phosphate buffered saline solution (PBS) and cultured for 72 hours in complete medium before subsequent 48 hour treatment with 5 μg/mL Poly IC. The cell cycle was then analyzed by FACS after staining with ethidium bromide, as described in Example 3.
# IL-6 = IL-6 secretion by ELISA in siRNA transfected Cama-1 cells; type: cell-based, human; conditions: 24 h with 5 μg/ml Poly IC, untreated 10
# Method: IL-6 secretion was measured in culture supernatants by standard Enzyme-Linked Assay (ELISA) using a DuoSet ELISA kit according to manufacturer's instructions (R&D Systems).
# In parallel, IL-6 concentration in the supernatants of siRNA transfected Cama-1 cells cultured for 24 hours either with or without 5 μg/ml of Poly IC was determined by ELISA. […] In the siRNA IRAK-4 group, untreated and treated cells had IL-6 concentrations (pg/ml/10^6 cells) of 10 and 40, respectively. In the siRNA TRAF6 group, untreated and treated cells had IL-6 concentrations (pg/ml/10^6 cells) of 10 and 20, respectively.
# IFN-β = experiment: Western Blot of Cama-1 cell lysate for IFN-β; type: cell-based, human; conditions: 5 μg/ml Poly IC, 0 to 24 hours
# Method: (§2) Cama-1 cells were lysed in 1% Nonidet-P40-containing buffer. 20 μg total protein was loaded per lane on SDS-Polyacrylamide gels (Invitrogen). Western Blots (WB) were performed with standard techniques using the antibodies described above. Anti IRAK-4 monoclonal antibodies were generated in the laboratory according to the protocol described in Fossiez et al., “T cell interleukin-17 induces stromal cells to produce proinflammatory and hematopoietic cytokines”, J. Exp. Med., vol. 183(6), pp. 2593-2603 (1996).
# The involvement of type 1 interferon in TLR3 mediated apoptosis was evaluated. Cama-1 cells were incubated with 5 μg/ml Poly IC for either 0 hours, 1 hour, 6 hours, 18 hours or 24 hours. The presence of IFN-β, phosphorylated Stat1 (tyrosine 701) (P-Stat-1) and total Stat-1 in the cell lysate were analyzed by Western Blot.
# TLR3 mRNA = TLR3 mRNA expression by RT-PCR in Cama-1 cells; type: cell-based, human; conditions: 48 h
# Method: Cama-1 cells were analyzed for TLR3 mRNA expression in response to Poly IC. Cama-1 cells were cultured in complete medium (DMEM F12 containing […] glucose and complemented with 2 mM L-glutamine, 10% fetal calf serum, 160 μg/mL gentalline, 2.5 mg/mL sodium bicarbonate) for 48 hours either alone or with LPS (5 μg/ml) and/or with Poly IC (5 μg/ml). The mRNA from each group of cells was extracted. The mRNA was then reverse-transcribed and PCR amplified for 35 cycles (as above in Example 1) with hTLR3 specific primers: TLR3F: […] (SEQ ID NO: 5) and TLR3R: […] (SEQ ID NO: 6). TLR3 mRNA could not be amplified from resting Cama-1 cells.
# Amplified DNA from RT-PCR using hTLR3 specific primers was run on a gel.
# PARP = experiment: Western Blot for cleavage of PARP in Cama-1 cells; type: cell-based, human; conditions: Poly IC treatment
# Method: as §2
# We next addressed the role of caspases in apoptosis. Cama-1 cells were pre-incubated with 25 μM of the general caspase inhibitor z-VAD-fmk or DMSO for 1 hour before culture for 24 hours with or without 5 μg/ml Poly IC or 25 ng/ml TNF-α (used as a positive control). Apoptosis was measured by annexin V staining and expressed as a percentage of apoptotic cell in the culture.
# In another experiment, lysates from cells obtained above were analyzed by Western Blot for cleavage of PARP, Caspase 3 and Caspase 8.
substance,measurement,setting,value
polyinosinic-polycytidylic acid [Poly IC],percentage of cells with subdiploid DNA content,[1]; 48 h with 5 μg/ml Poly IC (3% before treatment),23%
same,percentage of cells that incorporated BrdU,[1]; 48 h with 5 μg/ml Poly IC (27% before treatment),9%
same,percentage of cells with subdiploid DNA content,"Cama-1 cells; Cama-1, 48 h with 5 μg/ml Poly IC (4% before treatment)",17%
same,percentage of cells that incorporated BrdU,"Cama-1 cells; Cama-1, 48 h with 5 μg/ml Poly IC (15% before treatment)",2%
same,percentage of subdiploid cells,"Cama-1 cells; Cama-1 transfected with hTLR3 siRNA, 48 h with 5 μg/mL Poly IC",3%
same,percentage of subdiploid cells,"Cama-1 cells; Cama-1 transfected with scrambled RNA, 48 h with 5 μg/mL Poly IC (from 2%)",45%
same,IL-6 concentration in supernatant,IL-6; scr group,110 pg/ml/10^6 cells
same,IL-6 concentration in supernatant,IL-6; siRNA IRAK-4 group,40 pg/ml/10^6 cells
same,IL-6 concentration in supernatant,IL-6; siRNA TRAF6 group,20 pg/ml/10^6 cells
same,IFN-β production,IFN-β,strongly induced
same,TLR3 mRNA expression,"TLR3 mRNA; 5 μg/ml, agent alone",induced
same,TLR3 expression on gel,TLR3 mRNA; both Poly IC (5 μg/ml) and LPS (5 μg/ml),showed TLR3 expression
same,cleavage of PARP,PARP,occurred
